Where two headings read alike, the source gives them in different places.
Tests used:
[1] = tested on: male Zucker fa/fa rat, a model of type 2 diabetes and metabolic disorder; experiment: Efficacy of transdermal berberine alone and in combination with pharmaceuticals in a model of metabolic syndrome (Example 19); assay type: in vivo, obese male Zucker fa/fa rats; settings: Zucker fa/fa rats
Protocol: Fourteen obese male Zucker fa/fa rats at 5 weeks of age were housed for five weeks to the age of 10 weeks. During these five weeks, body weight measurements were taken once a week and once daily health observations were conducted for all animals. […] On Day 28, serum and whole liver was collected. […] Food and water intake measurements were taken once a week during the study period of Day 0 to Day 28. […] A sufficient amount of test article was supplied and formulated. Test article product was administered at a dose of 3.6 g/kg twice a day (e.g. […] Berberine cream was weighed fresh daily at each AM and PM dosing to avoid desiccation of the test article. Daily PO and TD dosing of the test articles took place between the hours of 08:00 to 10:00 and 16:00 to 18:00 for 7 days a week between Day 0 to 27. […] The exact time of dosing (up to the minute) was recorded for each animal on the daily dosing sheets. […] Remaining dosing solutions were stored at 4° C. between dosing periods. […] The animals shaved underwemt gaseous anaesthetic according to SOP ROD28.01 to ensure accuracy and avoid undue stress of the animal. The area was further shaven as needed over the course of the dosing period to ensure accurate drug application and absorption. At dosing, the animals were restrained and the transdermal test articles were applied in a uniform layer over the entire shaved area. […] PTS3028).

[2] = oral route, published; cited from earlier work
[3] = rats; cited from earlier work
[4] = humans; cited from earlier work
[5] = uptake inhibited by P-gp-mediated efflux; cited from earlier work
[6] = Solubility testing of berberine and dihydroberberine using various solvents; assay type: physicochemical
Protocol: Solubility was determined in a step-wise procedure that involved attempting to dissolve the berberine/DHB in the solvents at relatively high concentrations. […] Then the expected solvent was added to the berberine/DHB. The container was sonicated at RT or at 40C for 30 minutes. The following solvents were tested to dissolve the DHB. Dimethyl sulfoxide (Reagent Grade; […] Lot #STB[…]), and Glycerol tributyrate (Sigma T8626; Lot #BCBQ […]). […] The solubility was visually checked and state of solubility was recorded.

[7] = cited from earlier work
[8] = tested on: PCSK9 expression in HEPG2 cells; experiment: Berberine signaling in HEPG2: PCSK9 western blot of supernatant; assay type: cell-based, human; settings: 24 hours; for expression of PCSK9 in supernatant (western blot): 25 to 3.125 ug/ml, versus negative control
Protocol: HEPG2 cells were cultured in 24 well plates to confluence in DMEM supplemented with 10% FBS. After reaching confluence, cells were incubated overnight with 0.1% FBS OPTIMEM for serum starvation. After serum starvation the cells were incubated with berberine, DHB, or THB in 0.1% FBS OPTIMEM using the following dose course: 25 ug/ml, 12.5 ug/ml 6.25 ug/ml 3.125 ug/ml for 24 hours. Supernatant was collected after stimulation and western blotted as follows:
(1) Resolved on 12.5% gel.
(3) Blocked with 3% BSA TBST (4) Rabbit anti PCSK9 (Cayman chemicals cat 10007185) at 1/600 in TTBS (5) Wash 3×5 min with TTBS (6) HRP-Goat anti-Rabbit 1/1000 (Cayman chemicals) (7) Wash 3×5 min with TTBS (8) Detection with ECL
Proprotein convertase subtilisin/kexin type 9 (PCSK9) post-transcriptionally downregulates the low-density lipoprotein receptor (LDLR) by binding to the receptor's epidermal growth factor repeat A on the cell surface and shuttling the LDLR to the lysosomes for degradation. […] Previous reports indicate that berberine has lipid lowering effects in both animal models and human trials (Arrigo F. G., Cicero, L., Rovati C. et al., 2007). The signalling effects of berberine, DHB, and THB were evaluated using the human liver cell line HEPG2. PCSK9, an enzyme that acts in cholesterol homeostasis, is expressed in HEPG2 cells and these cells have previously been used as a model of dyslipidemia. PCSK9 binds to LDL receptor causing uptake of LDL and the LDL receptor and targets both molecules for degradation upon internalization. In the absence of PCSK9, LDL and LDL receptor are still internalized, however, LDL receptor is not degraded but instead recycled to the cell surface resulting in more efficient uptake of circulating LDL.

[9] = averaged over the entire experiment
[10] = Glycerol tributyrate, sonication 40 C.
[11] = Glycerol tributyrate, sonication RT
[12] = Isopropyl myristate, sonication 40 C.
[13] = Isopropyl myristate, sonication RT
[14] = Isosorbid-dimethyl ether 98%, sonication RT
[15] = Oleyl alcohol, sonication 40 C.
[16] = first four weeks of treatment, 0.5 g t.i.d.

Dissolving Capability ([6]; Ethanol, sonication 40 C.): 40 mg/mL
State of Solubility ([6]; Ethanol, sonication 40 C.): Suspension
Dissolving Capability ([6]; Ethanol, sonication RT): 25 mg/mL
State of Solubility ([6]; Ethanol, sonication RT): Suspension
Dissolving Capability [6, 10]: 250 mg/mL
State of Solubility [6, 10]: Suspension
Dissolving Capability [6, 11]: 50 mg/mL
State of Solubility [6, 11]: Suspension
Dissolving Capability [6, 12]: 250 mg/mL
State of Solubility [6, 12]: Suspension
Dissolving Capability [6, 13]: 50 mg/mL
State of Solubility [6, 13]: Suspension
Dissolving Capability ([6]; Isosorbid-dimethyl ether 98%, sonication 40 C.): 250 mg/mL
State of Solubility ([6]; Isosorbid-dimethyl ether 98%, sonication 40 C., at the concentration of the same line): Suspension
Dissolving Capability [6, 14]: 50 mg/mL
State of Solubility [6, 14]: Suspension
Dissolving Capability [6, 15]: 250 mg/mL
State of Solubility [6, 15]: Suspension
Dissolving Capability ([6]; Oleyl alcohol, sonication RT): 50 mg/mL
State of Solubility ([6]; Oleyl alcohol, sonication RT): Suspension
Dissolving Capability ([6]; Water, sonication 40 C.): 50 mg/mL
State of Solubility ([6]; Water, sonication 40 C.): Suspension
Dissolving Capability ([6]; Water, sonication RT): 25 mg/mL
State of Solubility ([6]; Water, sonication RT): Suspension
Structure (SMILES): COc1ccc2cc3[n+](cc2c1OC)CCc1cc2c(cc1-3)OCO2 [berberine, Berberine]
rate of weight gain (grams/day) ([1]; BID, Day 0 to 28, n=2): 3.3 grams/day
overall triglyceride levels (mmol/L+/−SEM) ([1]; averaged for the entire experiment): 9.5 ± 1.0 mmol/L
overall HbA1c level change (mmol/mmol+/−SEM) [1, 9]: 31.3+/−0.7 mmol/mmol
overall average food intake (grams+/−SEM) [1, 9]: 30.8+/−1.5 grams
overall cholesterol level change (mmol/L+/−SEM) [1, 9]: 5.0 ± 0.3 mmol/L
overall average glucose change (%+/−SEM) ([1]; non-fasting glucose, averaged over the entire experiment): −24.0+/−0.6%
Tmax [2]: ~15 min
time to almost complete clearance after administration [2]: ≤ 30 min
bioavailability of orally administered berberine [3]: approximately 0.7%
bioavailability [4]: below 1%
bioavailability [5]: less than 5%
abdominal pain, percentage of patients [7, 16]: 3.4%
constipation, percentage of patients [7, 16]: 6.9%
diarrhea, percentage of patients [7, 16]: 10.3%
flatulence, percentage of patients [7, 16]: 19.0%
patients with adverse gastrointestinal side-effects ([7]; type 2 diabetes patients, 13 week berberine treatment): 34.5%
concentration down to which expression of PCSK9 was reduced [8]: 6.25 µg/mL
expression of PCSK9 in supernatant (western blot) [8]: reduce the expression of PCSK9
expression of PCSK9 in supernatant (western blot) ([8]; listed as Berberine): down-regulate the expression of PCSK9
